Reference: patent publication US6780887B1, “Anti-ischemic compounds” (Societe de Conseils de Recherches et d'Applications …, priority 1999, dated 2004)
“Also recorded” adds a separate entry of the source.

Columns and labels:
hepatic mitochondria = experiment: In vivo effect on liver mitochondria RCR after treatment of rats per os for 5 days; set-up: species or system rat; conditions: for Effect on respiration stage IV (in words): liver mitochondria
Method: Following the treatment, the rats are sacrificed. The mitochondria are isolated from the liver and their respiratory activity is measured every 15 minutes for the 75 minutes following the isolation procedure.

heart mitochondria = experiment: In vivo effect on heart mitochondria RCR after treatment of rats per os for one day; set-up: species or system rat
Method: The following day, the rats are sacrificed and their mitochondria are isolated from the heart. Their respiratory activity is measured every 15 minutes for the 75 minutes following the isolation procedure.

[1] = tested on: neutrophil adherence to the endothelial cells; experiment: Neutrophil adherence to endothelial cells incubated under hypoxia; assay type: cell-based, human; conditions: 10^−8 mol/l
Method: After incubation, the cells are co-incubated with a non stimulated human neutrophil suspension.

[2] = tested on: endothelial cells of the human umbilical vein; experiment: Protection of ATP content in endothelial cells incubated under hypoxia; assay type: cell-based; conditions: for Average maximum protection of the decrease in ATP content induced by hypoxia: endothelial cells
Source text: This variability is inherent to the experimental model. Indeed, for each experiment, a different culture is used from different umbilical cord isolated cells and there is a behaviour variability of the cells from one cord to another.

[3] = tested on: purified mitochondria obtained from rat livers; experiment: In vitro mitochondrial respiration (stages III and IV, RCR) of purified mitochondria preincubated with compounds; assay type: biochemical; conditions: for Concentration of maximum/optimal effect on RCR (optimal concentration in pre-incubation): rat liver mitochondria preincubated with compound; for Effect on mitochondria RCR (in words) / Effect on respiration stage IV (in words): in vitro; for RCR increase (*): in % relative to the control brought to 100%; for Concentration (optimum concentration at which the effect was observed): RCR increase
Method: The mitochondria are isolated according to the method described by Nowicki et al., J. of Cerebral Blood Flow and Metabolism 2, p. […] The mitochondrial respiration is measured by an oxygen electrode connected to a recorder. The RCR represents the respiratory control, and represents the ratio of the oxygen consumption in the presence of an endogenous substrate (glutamate/malate) to the consumption after ADP phosphorylation in ATP.
The RCR has been subsequently calculated.

[4] = Stability in human plasma (GC); assay type: in vitro ADME; conditions: 24 hours, 37° C.
Method: The compounds of examples 1 and 2 have been submitted to stability tests in order to evaluate their behaviour when in contact with plasma after a 3 and 24 hour incubation at a temperature of 37° C. These tests have been performed using GC following the evolution of chromatograms of the different esters compared to an internal standard as a function of time.
The injection of GC/MF pure products has been performed in the following conditions:
injection temperature: 250° C.
initial temperature: 40° C.
final temperature: 250° C.
temperature gradient: 10° C./mn
The different compounds have been prepared as follows: 10 μl of pure compound have been dissolved in 100 μl plasma at a temperature of 37° C. The resulting solution is stirred. After a 3 or 24 hour period of time, 5 μl of internal standard (N-benzylamine) and 1 ml ether are added to the solution maintained at 37° C. The sample is centrifuged for 10 minutes at a rate of 13,000 rpm. 1 μl of the supernatant phase (ether phase) is injected in GC. The sample is then GC analyzed. […] No other peak optionally corresponding to metabolization products is observed.

Promyelocyte cells = experiment: Etoposide-induced apoptosis in promyelocyte cells; assay type: cell-based; conditions: cells incubated with etoposide
Method: Promyelocyte cells are incubated in the presence of apoptosis-inducing agents like the etoposide, a type II topoisomerase inhibitor. After incubation, different parameters indicative of the apoptosis are detectable: caspase activation, cytochrome C release by the mitochondria, DNA fragmentation, etc.

[5] = endothelial cells under hypoxia
[6] = 10^−6 M (optimum concentration)
[7] = 10^−7 M (optimum concentration)

C=CCOC(=O)C12CC1COC2=O (centres unmarked) [example 2, 2-propenyl-3-Oxa-2-Oxobicyclo[3.1.0]-hexane-1-carboxylate]
Activity on liver mitochondria RCR (in words) (hepatic mitochondria; 5 days, 0.18 mg/kg): weakly active
Mitochondria RCR increase (maximum) (hepatic mitochondria; 5 days, 3.6 mg/kg, liver): 17%
Effect on respiration stage IV (in words) (hepatic mitochondria; 5 days): decrease
Heart mitochondria RCR increase (heart mitochondria; one day treatment, 3.6 mg/kg): 56%
Maximum inhibition of hypoxia induced neutrophil adherence increase [1]: 71%
Average maximum protection of the decrease in ATP content induced by hypoxia ([2]; 10^−4 mol/l): 92.5%
Concentration at which ATP protection becomes negligible [2, 5]: 10^−6 mol/l
Optimal concentration in pre-incubation (mass concentration) [3]: 0.0183 µg/mL
Concentration of maximum/optimal effect on RCR (optimal concentration in pre-incubation) [3]: 10^−7 mol/l
Effect on mitochondria RCR (in words) ([3]; rat liver mitochondria): have an action on the RCR
Effect on respiration stage IV (in words) ([3]; rat liver mitochondria): decrease effect
Stability in human plasma (GC peak of compound) [4]: not found any more

O=C(CC(=O)O[C@@H]1C=CCC1)O[C@@H]1C=CCC1 [di-(S)-cyclopenten-2-yl malonate, di-(S)-2-cyclopenten-2-yl malonate]
RCR increase (*) [3, 6]: 18%
Concentration (optimum concentration at which the effect was observed) ([3]; rat liver mitochondria): 10^−6 M

O=C(CC(=O)Nc1ccccc1)Nc1ccccc1 [N,N′-diphenylmalonamide, N-N′-diphenyl malonamide]
RCR increase (*) [3, 7]: 5%
Concentration (optimum concentration at which the effect was observed) ([3]; rat liver mitochondria): 10^−7 M

Ethyl 2,6-dimethyl-N-phenylamido Ethanoate
RCR increase (*) [3, 6]: 13%
Concentration (optimum concentration at which the effect was observed) ([3]; rat liver mitochondria): 10^−6 M

CCOC(=O)CN(C)C(=O)C1CCCCC1 [Ethyl N-methyl-N-cyclohexamido ethanoate, Ethyl N-methyl -N-cyclohexamido Ethanoate]
RCR increase (*) [3, 7]: 15%
Concentration (optimum concentration at which the effect was observed) ([3]; rat liver mitochondria): 10^−7 M

Dicyclopenten-2-yl malonate [example 1]
Apoptosis induction (in words) (Promyelocyte cells): apoptosis induction inhibition is observed
Caspase 3 activation (Promyelocyte cells): inhibited
Cytochrome C release by the mitochondria (Promyelocyte cells): inhibited
DNA fragmentation (Promyelocyte cells): inhibited
Hepatic mitochondria RCR increase (hepatic mitochondria; 5 day treatment, 2.36 mg/kg): 25%
RCR versus control (in words) (hepatic mitochondria; 5 days, dose higher than 2.36 mg/kg): falls slightly below the control values
Effect on respiration stage IV (in words) (hepatic mitochondria; 5 days): clear decrease
Heart mitochondria RCR increase (heart mitochondria; one-day treatment, 2.36 mg/kg): 41%
Average maximum protection of the decrease in ATP content induced by hypoxia ([2]; 10^−4 mol/l to 10^−5 mol/l): 92.1%
Concentration at which ATP protection becomes negligible [2, 5]: 10^−8 mol/l
Protection of the decrease in ATP content induced by hypoxia (in words) [2, 5]: able to protect reproducibly
Concentration at which the RCR effect becomes negligible ([3]; rat liver mitochondria): 10^−9 mol/l
Concentration of maximum/optimal effect on RCR (optimal concentration in pre-incubation) [3]: 10^−6 mol/l
Effect on mitochondria RCR (in words) ([3]; rat liver mitochondria): have an action on the RCR; also recorded: significatively increases
Effect on respiration stage IV (in words) ([3]; rat liver mitochondria): strongly decreases
Stability in human plasma (GC peak of compound) [4]: still observed

Ethyl N-phenylamido Ethanoate [Ethyl N-phenlyamido ethanoate]
RCR increase (*) [3, 6]: 6.6%
Concentration (optimum concentration at which the effect was observed) ([3]; rat liver mitochondria): 10^−6 M
